The conditions of series [1]: cited from earlier work.
A short description of series [2]: Drug absorption after drug pretreatment of PDMS / PDMS-PEG samples. The series is classed as physicochemical. The note with it: 1 week pretreatment, 100 μM.
The conditions of series [3]: cited from earlier work. The source holds these as a separate data set.
Series [4] in a line: Drug absorption after drug pretreatment of PDMS / PDMS-PEG samples. The series is classed as physicochemical. To be noted: 24 hour pretreatment. How it is done: We pretreated with 200 μM and 1 mM concentrations and 1 week of absorption was measured (FIG. 4A). […] For these experiments, we utilized a 24 hour pretreatment step.
Drug Pretreatment: PDMS, 1% block copolymer, and 2% block copolymer samples were prepared as mentioned above. […] Pretreated samples were then transferred to a fresh 100 μM drug solution for one week of absorption, and absorption was assessed as described.

Series [5] in a line: 1-week drug absorption by PDMS / PDMS-PEG block copolymer plugs (UV-Vis). The series is classed as physicochemical. To be noted: 100 μM drug, 37° C.; for 1-week drug absorption with block copolymer versus PDMS: 1% and 2% BCP; for reduction of drug absorption by PDMS-PEG block copolymer additives: compared to PDMS. How it is done:
Plug size was chosen to be similar to many microfluidic devices. After 1 week, the drug concentration was measured using UV-Vis spectroscopy, the area under the curve (AUC) was calculated, and each value was compared to drug standards to determine the percent drug loss (FIG. 2A).
PDMS-PEG Fabrication: PDMS was prepared as previously described in Scott, L. E., Mair, D. B., Narang, J. D., Feleke, K. & Lemmon, C. A. Fibronectin fibrillogenesis facilitates mechano-dependent cell spreading, force generation, and nuclear size in human embryonic fibroblasts. […] PDMS base was mixed with PDMS crosslinker at a […] for 5 minutes and was then degassed in a desiccator for 30 minutes. […] 8 mm plugs were taken using a biopsy punch and used in downstream experiments. This height/diameter was chosen to provide a surface to volume ratio of ˜0.2/mm, similar to that found in microfluidic devices.
Drug absorption experimental setup: Samples were added to glass vials. A 1.5 mL volume of 100 μM pharmaceutical solution was added, and the samples were fully submerged in the solution. […] Experimental samples were compared to controls, in which drug was incubated for one week without a PDMS sample. The mean of the controls was taken as the total drug concentration without absorption, and the percent drug loss was calculated as
UV-Vis: Following experimental absorption, 2 μL samples were measured (Nanodrop 2000, ThermoFisher Scientific). Measurements were taken in triplicate for each sample to decrease noise. […] The area under the curve was used to calculate the precent drug loss, compared to the AUC of the drug standards. Sample size equals three, with three independent measurements per sample.

Series [6] concerns engineered heart tissue (EHT). As to the kind of experiment: Engineered heart tissue (Mantarray) twitch force dose response.
From the text: We utilized the commercially available Mantarray (Curi Bio) engineered heart tissue (EHT) platform to perform these screens. In this platform, the EHT self assembles between two posts, one soft and bendable, and the other stiff and immovable (FIG. 6B). The soft post has an embedded magnet, and deflection of the post due to EHT contraction results in changes in magnetic flux. The tissues can be placed over magnetic sensor arrays in the Mantarray system to measure this change in flux and calculate the twitch forces and kinetics.
After drug was allowed to absorb for 1 week, dose response curves were measured for each condition. […]
Engineered Heart Tissue Fabrication: The Mantarray (Curi Bio) is a system designed for reproducible fabrication and functional measurements of EHTs in a 24-well plate format. […] Cardiomyocytes and HS27A stromal cells (ATCC) were lifted using 0.05% trypsin+EDTA, counted, and resuspended at 8.3 million cells/mL and 2.5 million cells/mL, respectively. […]
EHT Dosing and Contractile Measurements: EHTs were fabricated as described above and paced to measure average force output. […] EHTs were paced at 5.0 V 1 Hz with a pulse duration of 10 milliseconds and average force output readings were recorded using a Mantarray for 60 seconds to give an initial mean force average. […] Percent reduction in twitch force following exposure to drug was then calculated using the equation
[7] abbreviates: 200 μM and 1 mM, PDMS, 1% and 2% BCP overall.

Values after ≈ are worked out from the molar mass of the structure shown. “Also recorded” adds a separate entry of the source.

The term logP denotes a log measure of how a compound divides between an organic and an aqueous phase. Regarding `CC(C)COCC(CN(Cc1ccccc1)c1ccccc1)N1CCCC1` (stereo not shown) [Bepridil], the logP in series [1] is given as 5.2. Moreover, the “effect of pretreating with experimental dosages for 1 week on drug absorption” value (from here on “effect … for 1 week on drug absorption”) in series [2] (PDMS only) is “significantly decreases bepridil absorption”. Further, the “Solubility in H2O” value in series [3] is recorded as 0.05655 mg/mL (≈ 154 µM). In addition, the “effect of pretreating with higher dosages on drug absorption” value in series [4] (setting [7]) was “significant reductions”; in series [4] (1 mM, 2% BCP), “significantly decreases absorption”; in series [4] (increasing dosage, 1% BCP) it was “a decrease, followed by an increase in drug absorption; also recorded: increased”; in series [4] (increasing dosage, PDMS), “a decrease, followed by an increase in drug absorption; also recorded: increased”. In addition, the “1-week drug absorption with block copolymer versus PDMS” value in series [5] was “no significant improvement”.
Turning to `COCCc1ccc(OCC(O)CNC(C)C)cc1` (stereo not shown) [Metoprolol Succinate], the “effect … for 1 week on drug absorption” value in series [2] (PDMS and PDMS-PEG BCP samples) is on record as “no significant effect”. Also, the “Solubility in H2O” value in series [3] was 1000 mg/mL. Also, the “effect of pretreating with higher dosages on drug absorption” value in series [4] (setting [7]) is “significant reductions”; in series [4] (200 μM, 2% BCP) it was “significant increase in absorption; also recorded: increased”; in series [4] (1 mM, PDMS) it was “increased”; in series [4] (increasing dosage, 1% BCP), “no significant change in absorption”; in series [4] (increasing dosage, PDMS) it was “biphasic drug absorption pattern”. In addition, the “1-week drug absorption with block copolymer versus PDMS” value in series [5] is “significantly reduced”. In addition, the “reduction of drug absorption by PDMS-PEG block copolymer additives” value in series [5] turned out to be 97.2%.
In the case of `CC(C)(C)c1ccc(C(O)CCCN2CCC(C(O)(c3ccccc3)c3ccccc3)CC2)cc1` (stereo not shown) [Terfenadine], the logP in series [1] was 6.6. The “effect … for 1 week on drug absorption” value in series [2] (PDMS and PDMS-PEG BCP samples) is reported as “significantly decreases terfenadine absorption”. Also, the “Solubility in H2O” value in series [3] is given as 0.0963 mg/mL (≈ 204 µM). Moreover, the “effect of pretreating with higher dosages on drug absorption” value in series [4] (setting [7]) was “further decrease terfenadine absorption; also recorded: significant reductions”. In series [5], the “1-week drug absorption with block copolymer versus PDMS” value is “significantly reduced” and the “reduction of drug absorption by PDMS-PEG block copolymer additives” value amounted to 61.8%.
`COc1ccc(CCN(C)CCCC(C#N)(c2ccc(OC)c(OC)c2)C(C)C)cc1OC` (stereo not shown) [Verapamil]: the “IC50 of drug incubated with APC compared to control” value in series [6] (drug incubated 1 week at 37° C. with APC (2% block copolymer-1 mM)) is given as “not significantly different from control”. Further, in series [6] (drug incubated 1 week at 37° C. with PDMS), the “IC50 of drug incubated with PDMS compared to control and APC” value is “significantly reduce the IC50 value”.
